Test results: patent US10667512B2, “Terpene-containing compositions and methods of making and using them” (Eden Research PLC, priority 2005, dated 2020)
Read-outs that look alike come from different tables or passages of the source.

Key:
[1] = type: physicochemical
Procedure: The reactions were incubated for 1, 3, 6, 9 and 24 hours at room temperature or 37° C. After incubation samples were centrifuged at 14,000×g for 10 minutes and the appearance of free terpene floating on the aqueous layer was scored. The highest volume of terpene absorbed by the particles as evidenced by the absence of free terpene was recorded as the volume of absorbed terpene emulsion. Colour of the encapsulated pellet was scored at 24 hours.

[2] = system: S. aureus; assay: MIC of terpene emulsions and fresh or freeze-dried Baker's YP / SAF Mannan encapsulated terpenes; type: cell-based; conditions: for MIC, Bakers Freeze Dried / MIC, Bakers Fresh: encapsulated in Baker's YP; for MIC, SAF Mannan Freeze Dried / MIC, SAF Mannan Fresh: encapsulated in SAF Mannan; for MIC, Emulsion: terpene emulsion
Procedure: The results of a protocol performed to compare the MIC of fresh versus freeze dried hollow glucan particle encapsulated terpene formulations are shown below in Table 13. A simple terpene emulsion was also tested and the results are shown for comparison.

[3] = system: E. coli; conditions: cited from earlier work
[4] = Terpene loading into yeast particles, absence of free terpene after centrifugation; type: physicochemical; conditions: for terpene emulsion absorbed and encapsulated per 10 mg of YP: Baker's YP 20 mg/ml; for terpene emulsion absorbed and encapsulated per 125 mg of YP: Baker's YP 250 mg/ml; for Vol. loaded: 500 μl of 250 mg/ml; for % Loaded w/w: terpene to particle weight
Procedure: (§1) Samples were centrifuged at 14,000×g for 10 minutes and the appearance of free terpene floating on the aqueous layer was scored.
The expression “free terpene” refers to the visible presence of terpene in the centrifuged reaction mixture. The absence of free terpene indicates complete absorption of the terpene by the particles. The highest volume of terpene absorbed by the particles, as evidenced by the absence of free terpene, was recorded as the maximal volume of absorbed terpene emulsion.
as §1
The expression “free terpene” refers to the visible presence of terpene in the centrifuged reaction mixture. The absence of free terpene indicates complete absorption of the terpene by the YP. The highest volume of terpene absorbed by the YP, as evidenced by the absence of free terpene, was recorded as the maximal volume of absorbed terpene emulsion.
Increasing volumes of terpene emulsion were mixed with 250 mg/ml Baker's YP or 250 mg/ml SAF Mannan™ overnight at room temperature as shown in Tables 7 and 8. Samples were centrifuged at 14,000×g for 10 minutes and the appearance of free terpene floating on the aqueous layer was scored. The highest volume of terpene emulsion absorbed by Baker's YP or SAF Mannan™ as evidenced by the absence of free terpene was recorded as the volume of absorbed terpene emulsion. Colour of encapsulated terpenes in the pellet was recorded.
Percentage loaded represents a ratio of the amount of terpene loaded to the amount of particle present (weight for weight).

[5] = Citral solution and stable suspension; type: physicochemical
Source text: In one embodiment the terpene component includes one or more terpenes which contain oxygen.

[6] = system: H. pylori; conditions: in vitro; cited from earlier work

Row | Compound | protection of citral from oxidation ([1]; in Baker's YP) | protection of citral from oxidation ([1]; in SAF Mannan) | MIC, Bakers Freeze Dried [2] [μg/ml terpene] | MIC, Bakers Fresh [2] [μg/ml terpene] | MIC, SAF Mannan Freeze Dried [2] [μg/ml terpene] | MIC, SAF Mannan Fresh [2] [μg/ml terpene] | MIC, Emulsion [2] [μg/ml terpene] | concentration in growth media that reduced the concentration of E. coli [3] | concentration with bactericidal effect [3] [%] | terpene emulsion absorbed and encapsulated per 10 mg of YP [4] | terpene emulsion absorbed and encapsulated per 125 mg of YP [4] | Vol. loaded ([4]; maximal loading in Baker's YP) [µL] | % Loaded w/w ([4]; maximal loading in Baker's YP) [% w/w] | Vol. loaded ([4]; maximal loading in SAF Mannan) [µL] | % Loaded w/w ([4]; maximal loading in SAF Mannan) [% w/w] | concentration up to which a solution can be made [5] | concentration up to which a stable suspension can be formed [5] | concentration that inhibited the growth of H. pylori [6] [mg/L]
1 | CC(C)=CCCC(C)=CC=O [Citral, 3,7-dimethyl-2,6-octadien-1-al] | not by the Baker's YP | protected from oxidation | 0.05 | 0.01 | >0.03 | 0.01 | 0.94 | more than 0.01% | 0.08 | at least 5 μl | at least 75 μl | 75 | 67 | 150 | 133 | up to 500 ppm | up to 2500 ppm | 
2 | L-carvone |  |  | >0.04 | 0.1 | >0.02 | 0.01 | 3.75 |  |  | at least 16.5 μl | at least 112.5 μl | 37.5 | 33.3 | 112.5 | 100 |  |  | 
3 | CC(C)=CCC/C(C)=C/CO [Geraniol] |  |  | 0.06 | 0.03 | >0.03 | 0.02 | 0.47 |  |  |  |  | 75 | 67 | 150 | 133 |  |  | 2
4 | C=CCc1ccc(O)c(OC)c1 [Eugenol] |  |  | 0.05 | 0.03 | 0.05 | 0.01 | 0.12 |  |  |  |  | 75 | 67 | 112.5 | 100 |  |  | 
